In patent US9828360B2 (Array BioPharma Inc., priority 2012, dated 2017):

What was measured:
Experiment in all cases: KinaseProfiler off-target kinase profiling
Type in all cases: biochemical
Conditions in all cases: 10 μM, ATP near Km
[1] = biological target: T1, HIPK2 (Homo sapiens, UniProt Q9H2X6)
T1 construct: purchased Millipore, Inc. (KinaseProfiler service)
Experimental: (§1) A representative compound of the invention (Example 48) was tested for off-target kinase activity at a concentration of 10 μM by Millipore, Inc. in their KinaseProfiler™ service against all the kinases available in their full kinase panel. The compound was run in duplicate at a concentration of ATP near the Km for each individual kinase according to Millipore's specifications. The results are shown in Table B. Data are reported as percent of control (POC) and are the average of the two replicates.

[2] = biological target: T2, IGF-1R Activated (Homo sapiens, UniProt P08069)
T2 construct: purchased Millipore, Inc. (KinaseProfiler service)
Experimental: as §1

[3] = biological target: T3, p70S6K (Homo sapiens, UniProt P23443)
T3 construct: purchased Millipore, Inc. (KinaseProfiler service)
Experimental: as §1

[4] = biological target: T4, TBK1 (Homo sapiens, UniProt Q9UHD2)
T4 construct: purchased Millipore, Inc. (KinaseProfiler service)
Experimental: as §1

[5] = biological target: T5, JAK3 (Homo sapiens, UniProt P52333)
T5 construct: purchased Millipore, Inc. (KinaseProfiler service)
Experimental: as §1

[6] = biological target: T6, PAK5 (Homo sapiens, UniProt Q9P286)
T6 construct: purchased Millipore, Inc. (KinaseProfiler service)
Experimental: as §1

[7] = biological target: T7, MLK1 (Homo sapiens, UniProt P80192)
T7 construct: purchased Millipore, Inc. (KinaseProfiler service)
Experimental: as §1

[8] = biological target: T8, Mer (Homo sapiens, UniProt Q12866)
T8 construct: purchased Millipore, Inc. (KinaseProfiler service)
Experimental: as §1

[9] = biological target: T9, MAPKAP-K5 (Homo sapiens, UniProt Q8IW41)
T9 construct: purchased Millipore, Inc. (KinaseProfiler service)
Experimental: as §1

[10] = biological target: T10, JAK2 (Homo sapiens, UniProt O60674)
T10 construct: purchased Millipore, Inc. (KinaseProfiler service)
Experimental: as §1

[11] = biological target: T11, KIT (Homo sapiens, UniProt P10721)
T11 construct: purchased Millipore, Inc. (KinaseProfiler service)
Experimental: as §1

[12] = biological target: T12, MAP3K5 (Homo sapiens, UniProt Q99683)
T12 construct: purchased Millipore, Inc. (KinaseProfiler service)
Experimental: as §1

[13] = biological target: T13, ErbB4 (Homo sapiens, UniProt Q15303)
T13 construct: purchased Millipore, Inc. (KinaseProfiler service)
Experimental: as §1

[14] = biological target: T14, TLK2 (Homo sapiens, UniProt Q86UE8)
T14 construct: purchased Millipore, Inc. (KinaseProfiler service)
Experimental: as §1

[15] = biological target: T15, CAMK1 (Homo sapiens, UniProt Q14012)
T15 construct: purchased Millipore, Inc. (KinaseProfiler service)
Experimental: as §1

[16] = biological target: T16, WNK3 (Homo sapiens, UniProt Q9BYP7)
T16 construct: purchased Millipore, Inc. (KinaseProfiler service)
Experimental: as §1

[17] = biological target: T17, SIK (Homo sapiens, UniProt P57059)
T17 construct: purchased Millipore, Inc. (KinaseProfiler service)
Experimental: as §1

[18] = biological target: T18, Abl2 (Homo sapiens, UniProt P42684)
T18 construct: purchased Millipore, Inc. (KinaseProfiler service)
Experimental: as §1

[19] = biological target: T19, MST3 (Homo sapiens, UniProt Q9Y6E0)
T19 construct: purchased Millipore, Inc. (KinaseProfiler service)
Experimental: as §1

[20] = biological target: T20, Tie2 (Homo sapiens, UniProt Q02763)
T20 construct: purchased Millipore, Inc. (KinaseProfiler service)
Experimental: as §1

[21] = biological target: T21, MKNK2 (Homo sapiens, UniProt Q9HBH9)
T21 construct: purchased Millipore, Inc. (KinaseProfiler service)
Experimental: as §1

[22] = biological target: T22, EphA2 (Homo sapiens, UniProt P29317)
T22 construct: purchased Millipore, Inc. (KinaseProfiler service)
Experimental: as §1

[23] = biological target: T23, MAPKAP-K3 (Homo sapiens, UniProt Q16644)
T23 construct: purchased Millipore, Inc. (KinaseProfiler service)
Experimental: as §1

[24] = biological target: T24, Flt4 (Homo sapiens, UniProt P35916)
T24 construct: purchased Millipore, Inc. (KinaseProfiler service)
Experimental: as §1

[25] = biological target: T25, Lyn (Homo sapiens, UniProt P07948)
T25 construct: purchased Millipore, Inc. (KinaseProfiler service)
Experimental: as §1

[26] = biological target: T26, PASK (Homo sapiens, UniProt Q96RG2)
T26 construct: purchased Millipore, Inc. (KinaseProfiler service)
Experimental: as §1

[27] = biological target: T27, Flt1 (Homo sapiens, UniProt P17948)
T27 construct: purchased Millipore, Inc. (KinaseProfiler service)
Experimental: as §1

[28] = biological target: T28, Plk1 (Homo sapiens, UniProt P53350)
T28 construct: purchased Millipore, Inc. (KinaseProfiler service)
Experimental: as §1

[29] = biological target: T29, Txk (Homo sapiens, UniProt P42681)
T29 construct: purchased Millipore, Inc. (KinaseProfiler service)
Experimental: as §1

[30] = biological target: T30, MEK1 (Homo sapiens, UniProt Q02750)
T30 construct: purchased Millipore, Inc. (KinaseProfiler service)
Experimental: as §1

[31] = biological target: T31, BrSK2 (Homo sapiens, UniProt Q8IWQ3)
T31 construct: purchased Millipore, Inc. (KinaseProfiler service)
Experimental: as §1

[32] = biological target: T32, ERK1 (Homo sapiens, UniProt P27361)
T32 construct: purchased Millipore, Inc. (KinaseProfiler service)
Experimental: as §1

[33] = biological target: T33, MSK1 (Homo sapiens, UniProt O75582)
T33 construct: purchased Millipore, Inc. (KinaseProfiler service)
Experimental: as §1

[34] = biological target: T34, CLK2 (Homo sapiens, UniProt P49760)
T34 construct: purchased Millipore, Inc. (KinaseProfiler service)
Experimental: as §1

[35] = biological target: T35, MuSK (Homo sapiens, UniProt O15146)
T35 construct: purchased Millipore, Inc. (KinaseProfiler service)
Experimental: as §1

[36] = biological target: T36, Yes (Homo sapiens, UniProt P07947)
T36 construct: purchased Millipore, Inc. (KinaseProfiler service)
Experimental: as §1

[37] = biological target: T37, CAMK1d (Homo sapiens, UniProt Q8IU85)
T37 construct: purchased Millipore, Inc. (KinaseProfiler service)
Experimental: as §1

[38] = biological target: T38, MARK1 (Homo sapiens, UniProt Q9P0L2)
T38 construct: purchased Millipore, Inc. (KinaseProfiler service)
Experimental: as §1

[39] = biological target: T39, GRK7 (Homo sapiens, UniProt Q8WTQ7)
T39 construct: purchased Millipore, Inc. (KinaseProfiler service)
Experimental: as §1

[40] = biological target: T40, PKAC-alpha (Homo sapiens, UniProt P17612)
T40 construct: purchased Millipore, Inc. (KinaseProfiler service)
Experimental: as §1

[41] = biological target: T41, FGFR4 (Homo sapiens, UniProt P22455)
T41 construct: purchased Millipore, Inc. (KinaseProfiler service)
Experimental: as §1

T9 sequence (Q8IW41 whole entry): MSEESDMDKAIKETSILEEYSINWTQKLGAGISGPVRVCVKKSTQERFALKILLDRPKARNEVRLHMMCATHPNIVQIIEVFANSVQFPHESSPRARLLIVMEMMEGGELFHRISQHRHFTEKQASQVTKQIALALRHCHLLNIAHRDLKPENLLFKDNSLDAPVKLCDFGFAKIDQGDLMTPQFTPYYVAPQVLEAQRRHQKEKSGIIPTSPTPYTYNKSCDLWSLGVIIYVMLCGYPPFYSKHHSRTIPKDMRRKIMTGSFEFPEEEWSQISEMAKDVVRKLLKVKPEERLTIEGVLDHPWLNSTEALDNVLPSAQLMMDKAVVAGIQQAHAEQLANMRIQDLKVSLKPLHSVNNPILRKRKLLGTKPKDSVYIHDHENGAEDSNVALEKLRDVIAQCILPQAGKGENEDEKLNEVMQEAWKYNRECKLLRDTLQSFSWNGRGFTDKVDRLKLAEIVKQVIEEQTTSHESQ
T34 sequence (P49760 whole entry): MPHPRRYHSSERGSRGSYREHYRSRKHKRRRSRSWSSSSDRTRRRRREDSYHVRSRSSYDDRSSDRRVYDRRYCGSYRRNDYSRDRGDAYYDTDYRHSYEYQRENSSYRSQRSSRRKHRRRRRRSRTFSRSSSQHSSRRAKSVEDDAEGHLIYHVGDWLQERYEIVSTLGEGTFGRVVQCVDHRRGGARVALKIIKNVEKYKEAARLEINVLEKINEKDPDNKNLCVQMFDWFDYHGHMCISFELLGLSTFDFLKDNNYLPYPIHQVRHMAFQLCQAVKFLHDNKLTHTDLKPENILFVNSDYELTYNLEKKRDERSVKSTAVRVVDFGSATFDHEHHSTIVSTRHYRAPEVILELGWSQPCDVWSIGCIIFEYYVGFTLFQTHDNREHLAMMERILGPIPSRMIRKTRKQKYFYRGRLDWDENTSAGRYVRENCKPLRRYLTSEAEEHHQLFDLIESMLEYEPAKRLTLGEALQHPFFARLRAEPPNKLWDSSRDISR
T17 sequence (P57059 whole entry): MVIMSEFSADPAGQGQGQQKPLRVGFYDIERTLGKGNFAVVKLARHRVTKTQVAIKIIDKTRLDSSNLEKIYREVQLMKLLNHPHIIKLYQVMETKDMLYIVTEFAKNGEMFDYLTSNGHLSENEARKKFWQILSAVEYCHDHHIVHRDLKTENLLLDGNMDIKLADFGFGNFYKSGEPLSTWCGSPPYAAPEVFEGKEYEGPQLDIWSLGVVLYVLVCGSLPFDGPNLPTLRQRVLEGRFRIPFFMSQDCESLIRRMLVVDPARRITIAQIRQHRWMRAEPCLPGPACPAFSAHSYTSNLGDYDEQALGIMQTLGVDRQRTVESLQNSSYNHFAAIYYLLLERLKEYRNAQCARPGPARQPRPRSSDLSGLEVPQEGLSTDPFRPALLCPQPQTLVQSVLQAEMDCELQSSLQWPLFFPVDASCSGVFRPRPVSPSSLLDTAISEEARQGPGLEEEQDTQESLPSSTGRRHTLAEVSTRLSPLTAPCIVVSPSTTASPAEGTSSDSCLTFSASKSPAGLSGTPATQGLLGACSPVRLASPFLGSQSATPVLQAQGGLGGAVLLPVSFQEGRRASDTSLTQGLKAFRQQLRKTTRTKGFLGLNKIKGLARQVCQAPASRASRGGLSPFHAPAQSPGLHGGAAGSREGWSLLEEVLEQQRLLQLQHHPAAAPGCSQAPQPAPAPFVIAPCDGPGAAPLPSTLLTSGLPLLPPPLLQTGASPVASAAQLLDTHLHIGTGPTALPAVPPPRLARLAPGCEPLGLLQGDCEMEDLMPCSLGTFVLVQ
T24 sequence (P35916 25-1363): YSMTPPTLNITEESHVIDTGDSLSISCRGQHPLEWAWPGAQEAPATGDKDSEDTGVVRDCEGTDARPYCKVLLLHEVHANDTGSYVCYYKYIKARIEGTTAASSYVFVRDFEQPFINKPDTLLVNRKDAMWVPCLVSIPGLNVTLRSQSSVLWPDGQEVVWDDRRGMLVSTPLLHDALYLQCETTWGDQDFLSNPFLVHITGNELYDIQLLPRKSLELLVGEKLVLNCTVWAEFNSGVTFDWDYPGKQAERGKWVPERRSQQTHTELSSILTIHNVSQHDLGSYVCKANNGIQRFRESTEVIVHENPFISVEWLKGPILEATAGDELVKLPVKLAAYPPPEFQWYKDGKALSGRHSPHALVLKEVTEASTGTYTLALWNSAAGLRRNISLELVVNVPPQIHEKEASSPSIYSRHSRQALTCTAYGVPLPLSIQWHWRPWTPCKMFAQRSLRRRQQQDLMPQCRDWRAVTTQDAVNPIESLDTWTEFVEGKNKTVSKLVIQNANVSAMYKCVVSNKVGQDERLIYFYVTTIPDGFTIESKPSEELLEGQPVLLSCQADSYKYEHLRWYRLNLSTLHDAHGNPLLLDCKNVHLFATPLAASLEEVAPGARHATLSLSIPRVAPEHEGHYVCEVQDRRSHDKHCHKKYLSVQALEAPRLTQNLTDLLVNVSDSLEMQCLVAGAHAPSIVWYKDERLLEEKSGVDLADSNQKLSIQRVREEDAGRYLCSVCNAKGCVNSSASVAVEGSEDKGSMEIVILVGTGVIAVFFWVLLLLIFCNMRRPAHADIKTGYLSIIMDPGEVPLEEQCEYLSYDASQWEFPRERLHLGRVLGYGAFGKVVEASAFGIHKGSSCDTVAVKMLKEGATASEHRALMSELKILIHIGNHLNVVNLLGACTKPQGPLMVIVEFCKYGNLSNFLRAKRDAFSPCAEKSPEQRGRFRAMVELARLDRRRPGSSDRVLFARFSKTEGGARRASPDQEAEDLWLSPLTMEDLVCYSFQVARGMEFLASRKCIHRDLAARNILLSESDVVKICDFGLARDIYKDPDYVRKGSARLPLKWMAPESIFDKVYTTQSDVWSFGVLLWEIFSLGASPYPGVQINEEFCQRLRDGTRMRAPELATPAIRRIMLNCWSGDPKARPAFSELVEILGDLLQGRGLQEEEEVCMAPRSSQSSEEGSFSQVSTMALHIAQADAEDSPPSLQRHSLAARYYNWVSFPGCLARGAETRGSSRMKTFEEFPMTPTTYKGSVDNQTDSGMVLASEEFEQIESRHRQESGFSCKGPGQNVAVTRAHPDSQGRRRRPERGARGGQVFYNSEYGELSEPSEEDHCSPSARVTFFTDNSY
T29 sequence (P42681 whole entry): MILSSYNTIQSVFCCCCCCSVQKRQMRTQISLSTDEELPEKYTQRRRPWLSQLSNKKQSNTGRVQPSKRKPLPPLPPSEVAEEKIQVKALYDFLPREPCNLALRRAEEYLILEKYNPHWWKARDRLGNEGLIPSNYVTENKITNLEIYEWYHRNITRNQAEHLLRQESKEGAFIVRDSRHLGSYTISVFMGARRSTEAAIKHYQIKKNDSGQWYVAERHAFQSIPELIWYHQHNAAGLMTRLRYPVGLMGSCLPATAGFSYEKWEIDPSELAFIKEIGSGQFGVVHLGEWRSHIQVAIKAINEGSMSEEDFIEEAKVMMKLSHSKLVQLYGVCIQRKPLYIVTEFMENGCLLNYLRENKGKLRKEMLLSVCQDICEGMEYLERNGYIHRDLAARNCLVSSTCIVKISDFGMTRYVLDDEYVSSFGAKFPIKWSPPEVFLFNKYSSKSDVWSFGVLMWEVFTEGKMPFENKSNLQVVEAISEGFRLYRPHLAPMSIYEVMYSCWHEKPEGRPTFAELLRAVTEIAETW
T27 sequence (P17948 27-1338): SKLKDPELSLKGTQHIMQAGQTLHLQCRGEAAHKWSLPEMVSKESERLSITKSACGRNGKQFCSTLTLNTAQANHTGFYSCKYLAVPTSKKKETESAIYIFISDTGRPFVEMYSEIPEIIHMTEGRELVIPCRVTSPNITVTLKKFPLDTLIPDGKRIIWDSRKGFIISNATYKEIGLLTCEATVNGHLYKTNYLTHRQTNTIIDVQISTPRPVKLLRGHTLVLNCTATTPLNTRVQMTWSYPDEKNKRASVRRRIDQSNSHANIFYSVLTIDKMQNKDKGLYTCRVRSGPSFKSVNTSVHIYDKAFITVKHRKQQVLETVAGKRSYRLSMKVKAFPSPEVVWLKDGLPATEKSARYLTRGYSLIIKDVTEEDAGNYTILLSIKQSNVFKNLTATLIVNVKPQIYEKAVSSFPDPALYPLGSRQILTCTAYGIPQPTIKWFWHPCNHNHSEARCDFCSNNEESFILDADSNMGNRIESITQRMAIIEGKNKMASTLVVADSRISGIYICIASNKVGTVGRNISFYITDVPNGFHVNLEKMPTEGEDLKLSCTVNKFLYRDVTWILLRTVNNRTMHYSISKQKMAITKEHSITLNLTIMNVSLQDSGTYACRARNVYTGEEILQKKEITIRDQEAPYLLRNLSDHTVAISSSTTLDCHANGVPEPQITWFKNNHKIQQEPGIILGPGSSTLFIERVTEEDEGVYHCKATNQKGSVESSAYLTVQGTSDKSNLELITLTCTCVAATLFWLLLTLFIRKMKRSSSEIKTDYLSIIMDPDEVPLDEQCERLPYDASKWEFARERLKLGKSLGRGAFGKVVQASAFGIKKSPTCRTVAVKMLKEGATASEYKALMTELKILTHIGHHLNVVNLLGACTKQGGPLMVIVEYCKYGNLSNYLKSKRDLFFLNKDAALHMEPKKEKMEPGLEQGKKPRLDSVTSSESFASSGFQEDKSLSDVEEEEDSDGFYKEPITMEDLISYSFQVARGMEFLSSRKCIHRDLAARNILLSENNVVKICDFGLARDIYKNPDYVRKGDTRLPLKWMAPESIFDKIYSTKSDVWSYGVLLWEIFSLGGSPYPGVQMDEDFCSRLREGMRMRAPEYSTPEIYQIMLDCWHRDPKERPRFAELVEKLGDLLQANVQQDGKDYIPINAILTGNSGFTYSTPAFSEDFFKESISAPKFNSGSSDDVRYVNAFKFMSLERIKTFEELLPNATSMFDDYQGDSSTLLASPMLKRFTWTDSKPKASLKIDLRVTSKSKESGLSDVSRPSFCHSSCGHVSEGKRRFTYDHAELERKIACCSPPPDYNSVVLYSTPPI

With `COCCN1C[C@@H](NC(=O)Nc2sc(C(C)C)nc2-c2ccccc2)[C@H](c2ccccc2)C1` [Example 48, 1-(2-isopropyl-4-phenylthiazol-5-yl)-3-((3S,4R)-1-(2-methoxyethyl)-4-phenylpyrrolidin-3-yl)urea] as the molecule, how does the “Avg POC” value [1] read?
Its value is 103% of control.

What about the “Avg POC” value [2] of the same molecule?
The value was 102% of control.

And the “Avg POC” value [3]?
Its value is 107.5% of control.

What about the “Avg POC” value [4] of the same molecule?
Its value is 96.5% of control.

And the “Avg POC” value [5]?
Its value is 102.5% of control.

What about the “Avg POC” value [6] of the same molecule?
The value was 113% of control.

What about the “Avg POC” value [7] of the same molecule?
Its value is 115% of control.

What about the “Avg POC” value [8] of the same molecule?
The value was 126.5% of control.

And the “Avg POC” value [9]?
The value was 108% of control.

What about the “Avg POC” value [10] of the same molecule?
Its value is 123.5% of control.

What about the “Avg POC” value [11] of the same molecule?
Its value is 100% of control.

What about the “Avg POC” value [12] of the same molecule?
The value was 102.5% of control.

And the “Avg POC” value [13]?
The value was 97% of control.

And the “Avg POC” value [14]?
The value was 98% of control.

What about the “Avg POC” value [15] of the same molecule?
Its value is 104.5% of control.

What about the “Avg POC” value [16] of the same molecule?
Its value is 99.5% of control.

What about the “Avg POC” value [17] of the same molecule?
The value was 111% of control.

What about the “Avg POC” value [18] of the same molecule?
The value was 124.5% of control.

And the “Avg POC” value [19]?
The value was 97% of control.

And the “Avg POC” value [20]?
The value was 96% of control.

And the “Avg POC” value [21]?
Its value is 96% of control.

What about the “Avg POC” value [22] of the same molecule?
The value was 101% of control.

What about the “Avg POC” value [23] of the same molecule?
Its value is 75.5% of control.

What about the “Avg POC” value [24] of the same molecule?
The value was 103% of control.

What about the “Avg POC” value [25] of the same molecule?
Its value is 108.5% of control.

What about the “Avg POC” value [26] of the same molecule?
Its value is 103% of control.

What about the “Avg POC” value [27] of the same molecule?
Its value is 96.5% of control.

What about the “Avg POC” value [28] of the same molecule?
Its value is 93% of control.

What about the “Avg POC” value [29] of the same molecule?
The value was 85.5% of control.

What about the “Avg POC” value [30] of the same molecule?
The value was 100% of control.

What about the “Avg POC” value [31] of the same molecule?
The value was 119.5% of control.

And the “Avg POC” value [32]?
The value was 100% of control.

What about the “Avg POC” value [33] of the same molecule?
The value was 121.5% of control.

And the “Avg POC” value [34]?
Its value is 116% of control.

What about the “Avg POC” value [35] of the same molecule?
The value was 107.5% of control.

And the “Avg POC” value [36]?
Its value is 97.5% of control.

What about the “Avg POC” value [37] of the same molecule?
The value was 105% of control.

And the “Avg POC” value [38]?
The value was 113% of control.

What about the “Avg POC” value [39] of the same molecule?
The value was 122% of control.

What about the “Avg POC” value [40] of the same molecule?
Its value is 98.5% of control.

What about the “Avg POC” value [41] of the same molecule?
The value was 102.5% of control.
